Measurements as given in US7223792B2, “Cytotoxic annonaceous acetogenins from Annona muricata” (Advpharma Inc., priority 2001, dated 2007).
≈ marks a conversion by molar mass, not a printed value. Read-outs that look alike come from different tables or passages of the source.

What was measured:
[1] = tested on: Hep G2; assay: three days cytotoxicity bioassay against Hep G2; settings: for IC50: Homo sapiens, HepG2, 72 h, read-out: Cytotoxicity IC50 Hep G2; for Cytotoxicity IC50 Hep G2: human hepatoma cell line Hep G2, three days bioassay
[2] = tested on: 2,2,15; assay: three days cytotoxicity bioassay against 2,2,15; type: cell-based, human; settings: for IC50: 72 h, read-out: Cytotoxicity IC50 2,2,15
Description: Adriamycin was used as a standard.

[3] = human hepatoma cell line 2,2,15, three days bioassay

COc1cccc2c1C(=O)c1c(O)c3c(c(O)c1C2=O)C[C@@](O)(C(=O)CO)C[C@@H]3O[C@H]1C[C@H](N)[C@H](O)[C@H](C)O1 [Adriamycin, reference compound]
IC50 [1]: 0.241 µg/mL (≈ 0.443 µM) | IC50 [2, 3]: 0.45 µg/mL (≈ 0.828 µM)

CCCCCCCCCCCC[C@@H](O)[C@H]1CC[C@@H]([C@@H](O)CCCCC(=O)CCCCCCCC2=C[C@H](C)OC2=O)O1 [Corossolone (12), Corossolone, reference compound]
IC50 [1]: 0.48 µg/mL (≈ 0.829 µM) | IC50 ([2]; Homo sapiens): 0.284 µg/mL (≈ 0.491 µM)

CCCCCCCCCCCCCC[C@@H](O)[C@H]1CC[C@H]([C@H](O)CC[C@H](O)CCCCCCCC2=C[C@H](C)OC2=O)O1 [Longifolicin (10), Longifolicin, reference compound]
IC50 [1]: 0.000404 µg/mL (≈ 0.000695 µM) | IC50 [2, 3]: 0.0049 µg/mL (≈ 0.00844 µM)

CCCCCC(O)C(O)CCCCCC[C@@H](O)[C@H]1CC[C@H](CCCCCCCCCC[C@@H](O)CC2=C[C@H](C)OC2=O)O1 (some centres unmarked) [Muricin A (1), Muricin A]
Cytotoxicity IC50 Hep G2 [1]: 5.04 µg/mL | times more potent than muricin B against Hep G2 ([1]; muricin A (4R-OH) compared with muricin B (4S-OH), Hep G2): 2.5 times | Cytotoxicity IC50 2,2,15 [2, 3]: 0.00513 µg/mL

CCCCCC(O)C(O)CCCCCC[C@H](O)[C@@H]1CC[C@H](CCCCCCCCCC[C@H](O)CC2=C[C@H](C)OC2=O)O1 (some centres unmarked) [Muricin B (2), Muricin B]
Cytotoxicity IC50 Hep G2 [1]: 1.78 µg/mL | Cytotoxicity IC50 2,2,15 [2, 3]: 0.00429 µg/mL

CCCCCCCC(O)C(O)CC[C@H](O)[C@@H]1CC[C@H](CCCCCCCCCCCC[C@@H](O)CC2=C[C@H](C)OC2=O)O1 (some centres unmarked) [Muricin C (3), Muricin C]
Cytotoxicity IC50 Hep G2 [1]: 0.499 µg/mL | Cytotoxicity IC50 2,2,15 [2, 3]: 0.00387 µg/mL

CCCCCCCC(O)C(O)CC[C@H](O)[C@@H]1CC[C@@H](CCCCCCCCCC[C@@H](O)CC2=C[C@H](C)OC2=O)O1 (some centres unmarked) [Muricin D (4), Muricin D]
Cytotoxicity IC50 Hep G2 [1]: 0.00066 µg/mL | Cytotoxicity IC50 2,2,15 [2, 3]: 0.048 µg/mL

CCCCC(O)C(O)C/C=C\CC[C@H](O)[C@@H]1CC[C@@H](CCCCCCCCCCCC[C@@H](O)CC2=C[C@H](C)OC2=O)O1 (some centres unmarked) [Muricin F (6), Muricin F]
cytotoxicity compared with muricin C against Hep G2 ([1]; comparison in words, Hep G2): more cytotoxic than muricin C | Cytotoxicity IC50 Hep G2 [1]: 0.0428 µg/mL | cytotoxicity compared with muricin C against 2,2,15 ([2]; comparison in words, 2,2,15): more cytotoxic than muricin C | Cytotoxicity IC50 2,2,15 [2, 3]: 0.00386 µg/mL

Corossolin [Corossolin (11), reference compound]
Cytotoxicity IC50 2,2,15 [2, 3]: 0.234 µg/mL
